Assay results published in PubChem BioAssay (NCI).
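GI50 marks 50% less growth. The concentration for full growth arrest is given as TGI.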

Tests used:
Test in all cases: DTP human tumour cell line panel, 384-well format
NCI-H226 lung = test system: NCI-H226 lung
SN12C renal = test system: SN12C renal
OVCAR-4 ovarian = test system: OVCAR-4 ovarian
MOLT-4 leukemia = test system: MOLT-4 leukemia
SR leukemia = test system: SR leukemia
NCI-H522 lung = test system: NCI-H522 lung
SF-539 CNS = test system: SF-539 CNS
SF-295 CNS = test system: SF-295 CNS
OVCAR-8 ovarian = test system: OVCAR-8 ovarian
KM12 colon = test system: KM12 colon
NCI-H322M lung = test system: NCI-H322M lung
CAKI-1 renal = test system: CAKI-1 renal
HL-60(TB) leukemia = test system: HL-60(TB) leukemia
786-0 renal = test system: 786-0 renal
A549 NSCLC = test system: A549 NSCLC
NCI-H460 NSCLC = test system: NCI-H460 NSCLC
SK-OV-3 ovarian = test system: SK-OV-3 ovarian
DU-145 prostate = test system: DU-145 prostate
CCRF-CEM leukemia = test system: CCRF-CEM leukemia
HOP-92 NSCLC = test system: HOP-92 NSCLC
HT29 colon = test system: HT29 colon
HCT-15 colon = test system: HCT-15 colon
MDA-MB-435 melanoma = test system: MDA-MB-435 melanoma
OVCAR-5 ovarian = test system: OVCAR-5 ovarian
RPMI-8226 leukemia = test system: RPMI-8226 leukemia
A498 renal = test system: A498 renal
NCI-H23 lung = test system: NCI-H23 lung
MALME-3M melanoma = test system: MALME-3M melanoma
SNB-75 CNS = test system: SNB-75 CNS
MCF7 breast = test system: MCF7 breast
BT-549 breast = test system: BT-549 breast
RXF 393 renal = test system: RXF 393 renal
MDA-MB-231 breast = test system: MDA-MB-231 breast
SW-620 colon = test system: SW-620 colon
TK-10 renal = test system: TK-10 renal
MDA-MB-468 breast = test system: MDA-MB-468 breast
SNB-19 CNS = test system: SNB-19 CNS
IGROV1 ovarian = test system: IGROV1 ovarian
T-47D breast = test system: T-47D breast
UO-31 renal = test system: UO-31 renal
UACC-257 melanoma = test system: UACC-257 melanoma
SF-268 CNS = test system: SF-268 CNS
SK-MEL-5 melanoma = test system: SK-MEL-5 melanoma
UACC-62 melanoma = test system: UACC-62 melanoma
OVCAR-3 ovarian = test system: OVCAR-3 ovarian
ACHN renal = test system: ACHN renal
COLO 205 colon = test system: COLO 205 colon
K-562 leukemia = test system: K-562 leukemia
HCC-2998 colon = test system: HCC-2998 colon
NCI/ADR-RES ovarian = test system: NCI/ADR-RES ovarian
LOX IMVI melanoma = test system: LOX IMVI melanoma
PC-3 prostate = test system: PC-3 prostate
HS 578T breast = test system: HS 578T breast
M14 melanoma = test system: M14 melanoma
SK-MEL-28 melanoma = test system: SK-MEL-28 melanoma
EKVX NSCLC = test system: EKVX NSCLC

`COCc1cc(C(=O)Nc2cc([C@H]3CC[C@@H](OC(=O)NC(C)C)C3)[nH]n2)n(C)n1` gave a GI50 (NCI-H226 lung) of 2.85 µM, a TGI (NCI-H226 lung) of 51.6 µM and a GI50 (SN12C renal) of 4.38 µM. It also gave a TGI (SN12C renal) of 23.9 µM, a GI50 (OVCAR-4 ovarian) of 18.3 µM and a TGI (OVCAR-4 ovarian) of 52.7 µM. It also gave a GI50 (MOLT-4 leukemia) of 4.36 µM, a TGI (MOLT-4 leukemia) of 12.5 µM and a GI50 (SR leukemia) of 0.557 µM. It also gave a TGI (SR leukemia) of 1.86 µM, a GI50 (NCI-H522 lung) of 15.1 µM and a TGI (NCI-H522 lung) of 31.6 µM. The GI50 (SF-539 CNS) was 3.97 µM, the TGI (SF-539 CNS) was 19.6 µM and the GI50 (SF-295 CNS) was 10.3 µM. The TGI (SF-295 CNS) was 79.3 µM, the GI50 (OVCAR-8 ovarian) was 4.64 µM and the TGI (OVCAR-8 ovarian) was 36.2 µM. The GI50 (KM12 colon) was 0.571 µM, the TGI (KM12 colon) was 17.2 µM and the GI50 (NCI-H322M lung) was 3.8 µM. The TGI (NCI-H322M lung) was 13 µM, the GI50 (CAKI-1 renal) was 3.99 µM and the TGI (CAKI-1 renal) was > 100 µM. The GI50 (HL-60(TB) leukemia) was 1.52 µM, the TGI (HL-60(TB) leukemia) was 2.89 µM and the GI50 ([…]-0 renal) was 5.05 µM. For the same compound, the TGI (786-0 renal) was 64.2 µM, the GI50 (A549 NSCLC) was 3.03 µM and the TGI (A549 NSCLC) was > 100 µM. It also gave a GI50 (NCI-H460 NSCLC) of 3.07 µM, a TGI (NCI-H460 NSCLC) of 14.3 µM and a GI50 (SK-OV-3 ovarian) of 8.29 µM. For the same compound, the TGI (SK-OV-3 ovarian) was 90.1 µM, the GI50 (DU-145 prostate) was 3.14 µM and the TGI (DU-145 prostate) was > 100 µM. The GI50 (CCRF-CEM leukemia) was 2.81 µM, the TGI (CCRF-CEM leukemia) was 7.24 µM and the GI50 (HOP-92 NSCLC) was 14 µM. For the same compound, the TGI (HOP-92 NSCLC) was > 100 µM, the GI50 (HT29 colon) was 12.4 µM and the TGI (HT29 colon) was > 100 µM. It also gave a GI50 (HCT-15 colon) of 6.45 µM, a TGI (HCT-15 colon) of 37.4 µM and a GI50 (MDA-MB-435 melanoma) of 12.5 µM. The TGI (MDA-MB-435 melanoma) was 84.8 µM, the GI50 (OVCAR-5 ovarian) was 3.12 µM and the TGI (OVCAR-5 ovarian) was 9.17 µM. It also gave a GI50 (RPMI-8226 leukemia) of 1.84 µM, a TGI (RPMI-8226 leukemia) of 6.78 µM and a GI50 (A498 renal) of 1.52 µM. For the same compound, the TGI (A498 renal) was > 100 µM, the GI50 (NCI-H23 lung) was 2.48 µM and the TGI (NCI-H23 lung) was 10.1 µM. The GI50 (MALME-3M melanoma) was 12.3 µM, the TGI (MALME-3M melanoma) was 26.1 µM and the GI50 (SNB-75 CNS) was 8.98 µM. The TGI (SNB-75 CNS) was 22.3 µM, the GI50 (MCF7 breast) was 2.66 µM and the TGI (MCF7 breast) was 13.4 µM. It also gave a GI50 (BT-549 breast) of 3.38 µM, a TGI (BT-549 breast) of 20.3 µM and a GI50 (RXF 393 renal) of 5.42 µM. The TGI (RXF 393 renal) was 23.4 µM, the GI50 (MDA-MB-231 breast) was 9.08 µM and the TGI (MDA-MB-231 breast) was > 100 µM. The GI50 (SW-620 colon) was 2.45 µM, the TGI (SW-620 colon) was 65.4 µM and the GI50 (TK-10 renal) was 14.8 µM. The TGI (TK-10 renal) was > 100 µM, the GI50 (MDA-MB-468 breast) was 13.9 µM and the TGI (MDA-MB-468 breast) was 27 µM. For the same compound, the GI50 (SNB-19 CNS) was 5.67 µM, the TGI (SNB-19 CNS) was > 100 µM and the GI50 (IGROV1 ovarian) was 4.47 µM. For the same compound, the TGI (IGROV1 ovarian) was > 100 µM, the GI50 (T-47D breast) was 5.58 µM and the TGI (T-47D breast) was > 100 µM. For the same compound, the GI50 (UO-31 renal) was 31.5 µM, the TGI (UO-31 renal) was > 100 µM and the GI50 (UACC-257 melanoma) was 6.8 µM. It also gave a TGI (UACC-257 melanoma) of 25.3 µM, a GI50 (SF-268 CNS) of 2.37 µM and a TGI (SF-268 CNS) of 15.4 µM. The GI50 (SK-MEL-5 melanoma) was 0.762 µM, the TGI (SK-MEL-5 melanoma) was 13.9 µM and the GI50 (UACC-62 melanoma) was 2.98 µM. The TGI (UACC-62 melanoma) was 12.8 µM, the GI50 (OVCAR-3 ovarian) was 5.24 µM and the TGI (OVCAR-3 ovarian) was 28.8 µM. The GI50 (ACHN renal) was 3.45 µM, the TGI (ACHN renal) was > 100 µM and the GI50 (COLO 205 colon) was 0.975 µM. It also gave a TGI (COLO 205 colon) of 19 µM, a GI50 (K-562 leukemia) of 13.8 µM and a TGI (K-562 leukemia) of 65.2 µM. The GI50 (HCC-2998 colon) was 5.15 µM, the TGI (HCC-2998 colon) was 25.9 µM and the GI50 (NCI/ADR-RES ovarian) was > 100 µM. For the same compound, the TGI (NCI/ADR-RES ovarian) was > 100 µM, the GI50 (LOX IMVI melanoma) was 3.12 µM and the TGI (LOX IMVI melanoma) was 18.9 µM. For the same compound, the GI50 (PC-3 prostate) was 6.59 µM, the TGI (PC-3 prostate) was > 100 µM and the GI50 (HS 578T breast) was 11.4 µM. The TGI (HS 578T breast) was 29.5 µM, the GI50 (M14 melanoma) was 4.82 µM and the TGI (M14 melanoma) was 18.8 µM. For the same compound, the GI50 (SK-MEL-28 melanoma) was 10.3 µM, the TGI (SK-MEL-28 melanoma) was 22.8 µM and the GI50 (EKVX NSCLC) was 14.9 µM. For the same compound, the TGI (EKVX NSCLC) was 48.8 µM.
